Laboratory results from PMC12630025, “Characterization and inhibitor sensitivity of ARAF, BRAF, and CRAF kinases [drawing 1]” (The Journal of Biological Chemistry, 2025).
Values joined by “and” are separate entries in the source; they are usually repeats but may differ in a detail not shown here. Identical values can stand only once. Like-named read-outs stand apart in the source and are kept apart here.

Legend:
BRAF^KD = BRAF^KD (Homo sapiens, UniProt P15056); experiment: ATP and MEK titrations by TR-FRET (Michaelis constants, substrate inhibition)
CRAF^WT = CRAF^WT (Homo sapiens, UniProt P04049); experiment: as above
CRAF^SSDD = CRAF^SSDD (Homo sapiens, UniProt P04049, Y340D/Y341D); experiment: as above
BRAF^V600E = BRAF^V600E (Homo sapiens, UniProt P15056, V600E); experiment: as above
ARAF^SSDD = biological target: T1, ARAF^SSDD (Homo sapiens, UniProt P10398, G300S/Y301D/Y302D); experiment: as above
T1 sequence (P10398 274-606 G300S/Y301D/Y302D): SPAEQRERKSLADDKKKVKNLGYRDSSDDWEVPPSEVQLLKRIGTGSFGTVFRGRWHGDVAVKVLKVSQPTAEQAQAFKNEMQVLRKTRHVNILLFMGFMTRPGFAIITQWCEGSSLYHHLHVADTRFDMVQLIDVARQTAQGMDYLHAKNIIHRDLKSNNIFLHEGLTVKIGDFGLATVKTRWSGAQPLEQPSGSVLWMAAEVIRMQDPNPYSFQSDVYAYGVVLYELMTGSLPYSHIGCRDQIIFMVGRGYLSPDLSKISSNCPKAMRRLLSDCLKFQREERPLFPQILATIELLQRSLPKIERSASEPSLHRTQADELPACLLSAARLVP

BRAF^WT = biological target: T2, BRAF^WT (Homo sapiens, UniProt P15056); experiment: as above; format: biochemical; conditions: apparent Ki of substrate inhibition by ATP
T2 construct: His6 (N); made in house; host or cells: SF9 insect cells (baculovirus)
T2 sequence (P15056 419-766): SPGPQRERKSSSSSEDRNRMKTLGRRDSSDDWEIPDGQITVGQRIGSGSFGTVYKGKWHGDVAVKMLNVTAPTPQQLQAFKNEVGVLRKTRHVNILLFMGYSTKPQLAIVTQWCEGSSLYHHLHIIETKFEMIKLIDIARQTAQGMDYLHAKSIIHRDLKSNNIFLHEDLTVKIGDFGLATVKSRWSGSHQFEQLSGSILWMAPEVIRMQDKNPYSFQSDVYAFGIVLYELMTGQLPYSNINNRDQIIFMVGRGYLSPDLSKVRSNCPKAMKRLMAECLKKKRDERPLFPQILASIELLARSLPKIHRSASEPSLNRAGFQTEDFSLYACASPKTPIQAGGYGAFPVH

[1] = biological target: T3, BRAF^WT (MEK1^SASA:BRAF^WT:14-3-3 dimer complex) (Homo sapiens, UniProt P15056); experiment: biochemical; format: biochemical; conditions: for effect of increasing ATP concentration on IC50 for BRAF^WT dimers: 10, 100, 1000 μM ATP
T3 construct: His6 (N); made in house; host or cells: SF9 insect cells (baculovirus)
T3 sequence (P15056 419-766, one chain of several): as the sequence (P15056 419-766) above

[2] = biological target: T4, ARAF^SSDD (MEK1^SASA:ARAF^SSDD-14-3-3ε dimer complex) (Homo sapiens, UniProt P10398, G300S/Y301D/Y302D); experiment: TR-FRET kinase inhibition assay (phosphorylation of biotinylated MEK1), ARAF dimer complex; format: biochemical; conditions: for IC50: 10 nM enzyme, 250 nM MEK1, 200 μM ATP, 40 min preincubation, 30 min reaction; for ARAF^SSDD nH (Hill slope): four-parameter fit, 200 μM ATP; for cooperativity of inhibition of ARAF^SSDD: from Hill constants, less than −1.0 indicates positive cooperativity
T4 construct: ARAF^274-606, G300S, Y301/302D-14-3-3 ε with N-terminal His6 and StrepII tags; His6 (N); StrepII (N); made in house; host or cells: SF9 insect cells (baculovirus)
T4 sequence (P10398 274-606 G300S/Y301D/Y302D): T1 sequence (P10398 274-606 G300S/Y301D/Y302D)

[3] = biological target: T5, CRAF^WT (MEK1:CRAF^WT:14-3-3 dimer complex) (Homo sapiens, UniProt P04049); experiment: TR-FRET kinase inhibition assay (phosphorylation of biotinylated MEK1), CRAF WT dimer complex; format: biochemical; conditions: for CRAF^WT nH (Hill slope): four-parameter fit
T5 construct: His6 (N); made in house; host or cells: insect cells (baculovirus)

[4] = biological target: T6, CRAF^SSDD (MEK1^SASA:CRAF^SSDD:14-3-3 dimer complex) (Homo sapiens, UniProt P04049, Y340D/Y341D); experiment: TR-FRET kinase inhibition assay (phosphorylation of biotinylated MEK1), CRAF SSDD dimer complex; format: biochemical; conditions: for CRAF^SSDD nH (Hill slope): four-parameter fit, 200 μM ATP; for CRAF^SSDD IC50: 1 nM enzyme
T6 construct: His6 (N); StrepII (N); made in house; host or cells: insect cells (baculovirus)

[5] = biological target: T7, BRAF^V600E (MEK1^SASA:BRAF^V600E monomer complex) (Homo sapiens, UniProt P15056, V600E); experiment: TR-FRET kinase inhibition assay (phosphorylation of biotinylated MEK1), BRAF V600E monomer complex; format: biochemical
T7 construct: His6 (N); intein (C, cleaved yes); made in house; host or cells: insect cells (baculovirus)

[6] = test system: CRAF^WT (MEK1:CRAF^WT:14-3-3 dimer complex); experiment: TR-FRET kinase inhibition assay (phosphorylation of biotinylated MEK1), CRAF WT dimer complex; format: biochemical; conditions: IC50 ratio ARAF/CRAF
[7] = test system: BRAF^WT (MEK1^SASA:BRAF^WT:14-3-3 dimer complex); experiment: biochemical; format: biochemical; conditions: IC50 ratio versus BRAF^V600E
[8] = 1 nM enzyme, 250 nM MEK1, 200 μM ATP, 40 min preincubation, 30 min reaction, read-out: BRAF^WT IC50
[9] = IC50 of BRAF^WT at 10 μM ATP, 10 μM ATP
[10] = IC50 of BRAF^WT at 100 μM ATP, 100 μM ATP
[11] = IC50 of BRAF^WT at 1000 μM ATP, 1000 μM ATP
[12] = 4 nM enzyme, 250 nM MEK1, 200 μM ATP, 40 min preincubation, 30 min reaction
[13] = 4 nM enzyme, 250 nM MEK1, 200 μM ATP, 40 min preincubation, 30 min reaction, read-out: CRAF^WT IC50
[14] = 250 nM MEK1, 200 μM ATP, 40 min preincubation, 30 min reaction
[15] = read-out: IC50 of BRAF^WT at 100 μM ATP, 100 μM ATP
[16] = 1 nM enzyme, 250 nM MEK1, 200 μM ATP, 40 min preincubation, three-parameter fit

Structure (SMILES) | BRAF^WT nH (Hill slope) ([1]; four-parameter fit, 200 μM ATP) | IC50 [2] | ARAF^SSDD nH (Hill slope) [2] | CRAF^WT nH (Hill slope) ([3]; 200 μM ATP) | CRAF^SSDD nH (Hill slope) [4] | also measured
Nc1ncnc2c1ncn2[C@@H]1O[C@H](COP(=O)(O)OP(=O)(O)OP(=O)(O)O)[C@@H](O)[C@H]1O [ATP] | – | – | – | – | – | Km-ATP, BRAF^KD (BRAF^KD; ATP titration, substrate inhibition fit): 0.18 ± 0.04 µM; Ki (BRAF^KD; read-out: Ki-ATP, BRAF^KD, apparent Ki of substrate inhibition by ATP): 3530 ± 580 µM; Ki (CRAF^WT; read-out: Ki-ATP, CRAF^WT, apparent Ki of substrate inhibition by ATP): > 15000 µM; Km (CRAF^WT; read-out: Km-ATP, CRAF^WT, ATP titration, substrate inhibition fit): 1.56 ± 1.5 µM; Ki (CRAF^SSDD; read-out: Ki-ATP, CRAF^SSDD, apparent Ki of substrate inhibition by ATP): > 15000 µM; Km (CRAF^SSDD; read-out: Km-ATP, CRAF^SSDD, ATP titration, substrate inhibition fit): 0.73 ± 0.38 µM; Ki (BRAF^V600E; read-out: Ki-ATP, BRAF^V600E, apparent Ki of substrate inhibition by ATP): 6340 ± 4070 µM; Km (BRAF^V600E; read-out: Km-ATP, BRAF^V600E, ATP titration, substrate inhibition fit): 12.6 ± 7.8 µM; Ki (ARAF^SSDD; read-out: Ki-ATP, ARAF^SSDD, apparent Ki of substrate inhibition by ATP): > 15000 µM; Km (ARAF^SSDD; read-out: Km-ATP, ARAF^SSDD, ATP titration, substrate inhibition fit): 1.58 ± 0.19 µM; Ki (BRAF^WT): 4840 ± 2850 µM
Cc1ccc(NC(=O)c2cccc(C(C)(C)C#N)c2)cc1Nc1ccc2ncn(C)c(=O)c2c1 [AZ628] | −3.1 | 0.0441 ± 0.0212 µM | −1.8 | −1.1 | −2.6 | cooperativity of inhibition of ARAF^SSDD [2]: clear positive cooperativity
Cc1ccc2c(Nc3cccc(Cl)c3F)nccc2c1NC(=O)c1csc2c(N)ncnc12 [Belvarafenib] | −3.0 | 0.0699 ± 0.032 µM | −1.3 | −1.6 | −3.0 | IC50 [1, 8]: 0.0199 ± 0.00098 µM; effect of increasing ATP concentration on IC50 for BRAF^WT dimers [1]: only modestly affected; IC50 [1, 9]: 0.0142 ± 0.00636 µM; IC50 [1, 10]: 0.0215 ± 0.00923 µM; IC50 [1, 11]: 0.0293 ± 0.00875 µM; IC50 [5]: 0.0133 ± 0.00087 µM; CRAF^WT IC50 [3, 12]: single-digit nanomolar; IC50 [3, 13]: 0.00505 ± 0.00181 µM; CRAF^SSDD IC50 [4, 14]: single-digit nanomolar; IC50 ([4]; read-out: CRAF^SSDD IC50): 0.00566 ± 0.00112 µM
CC(C)(C)c1nc(-c2cccc(NS(=O)(=O)c3c(F)cccc3F)c2F)c(-c2ccnc(N)n2)s1 [Dabrafenib] | −1.4 | 0.009 µM and 0.00858 µM | −1.1 | −0.9 | −1.0 | –
OCCn1cc(-c2ccc3c(c2)CC/C3=N\O)c(-c2ccncc2)n1 [GDC0879] | – | – | −0.4 | −1.0 | −0.7 | BRAF^WT nH (Hill slope) [1]: −0.9
CNc1ncc2cc(-c3cc(NC(=O)NCCC(C)(C)C)c(F)cc3C)c(C)nc2n1 [LY3009120] | −2.2 | – | −3.6 | −1.4 | −2.9 | cooperativity of inhibition of ARAF^SSDD [2]: clear positive cooperativity
Cc1ccc(NC(=O)c2ccnc(C(F)(F)F)c2)cc1-c1cc(OCCO)nc(N2CCOCC2)c1 [Naporafenib] | −2.3 | 0.161 ± 0.0192 µM | −3.2 | −1.9 | −2.6 | IC50 [1, 8]: 0.0371 ± 0.023 µM; effect of increasing ATP concentration on IC50 for BRAF^WT dimers [1]: only modestly affected; IC50 [1, 9]: 0.0291 ± 0.00831 µM; IC50 [1, 11]: 0.0549 ± 0.0165 µM; IC50 [1, 15]: 0.0382 ± 0.0114 µM; cooperativity of inhibition of ARAF^SSDD [2]: clear positive cooperativity; IC50 [5]: 0.0513 ± 0.00116 µM; CRAF^WT IC50 [3, 12]: single-digit nanomolar; IC50 [3, 13]: 0.00546 ± 0.00267 µM; fold greater potency against CRAF dimers than ARAF dimers [6]: approximately 30 fold; CRAF^SSDD IC50 [4, 14]: single-digit nanomolar; IC50 ([4]; read-out: CRAF^SSDD IC50): 0.00605 ± 0.00241 µM
CCCS(=O)(=O)Nc1ccc(F)c(C(=O)c2c[nH]c3ncc(Cl)cc23)c1F [PLX4720] | – | 0.704 ± 0.264 µM | −0.5 | – | – | –
CCN(C)S(=O)(=O)Nc1ccc(F)c(C(=O)c2c[nH]c3ncc(-c4cnc(C5CC5)nc4)cc23)c1F [PLX7904] | −0.6 | 0.899 ± 0.516 µM | −0.6 | −0.4 | −0.4 | IC50 [1, 8]: > 0.999 µM; IC50 ([1]; read-out: IC50 of BRAF^WT at 10 μM ATP, 10 μM ATP): 0.17 ± 0.121 µM; IC50 [1, 15]: > 1 µM; IC50 ([1]; read-out: IC50 of BRAF^WT at 1000 μM ATP, 1000 μM ATP): > 10 µM; IC50 [5, 16]: 0.32 ± 0.0824 µM
O=C(c1c(F)ccc(NS(=O)(=O)N2CC[C@@H](F)C2)c1F)c1c[nH]c2ncc(-c3cnc(C4CC4)nc3)cc12 [PLX8394] | −0.9 | 0.0596 ± 0.0548 µM | −0.8 | −0.5 | −0.5 | fold less active on BRAF^WT dimers than on BRAF^V600E [7]: about 3 fold; IC50 [1, 8]: 0.054 ± 0.0401 µM; effect of increasing ATP concentration on IC50 for BRAF^WT dimers [1]: shifted as expected; IC50 [1, 9]: 0.0111 ± 0.00784 µM; IC50 [1, 10]: 0.0385 ± 0.0342 µM; IC50 [1, 11]: 0.259 ± 0.316 µM; fold less active on ARAF^SSDD dimers than on BRAF^V600E ([2]; IC50 ratio versus BRAF^V600E): about 3 fold; IC50 [5, 16]: 0.0211 ± 0.00178 µM; IC50 [3, 13]: > 0.999 µM; IC50 ([3]; 200 μM ATP, read-out: CRAF^WT dimers IC50): > 1 µM; IC50 ([4]; read-out: CRAF^SSDD IC50): 0.279 ± 0.202 µM
Cc1ccc(C(=O)Nc2ccc(CN3CCN(C)CC3)c(C(F)(F)F)c2)cc1C#Cc1cnc2cccnn12 [Ponatinib] | −2.0 | – | −1.2 | −0.9 | −1.6 | –
CN(C)CCOc1ccc(-c2nc(-c3ccncc3)c(-c3ccc4c(c3)CC/C4=N\O)[nH]2)cc1 [SB590885] | – | 0.0146 ± 0.0039 µM | −0.6 | – | – | BRAF^WT nH (Hill slope) [1]: −1.0; IC50 ([3]; CRAF^WT IC50, 4 nM enzyme, 250 nM MEK1, 200 μM ATP, 40 min preincubation, 30 min reaction): 0.0116 ± 0.00119 µM; IC50 ([4]; CRAF^SSDD IC50, 1 nM enzyme, 250 nM MEK1, 200 μM ATP, 40 min preincubation, 30 min reaction): 0.0025 ± 0.00163 µM
CNC(=O)c1cc(Oc2ccc(NC(=O)Nc3ccc(Cl)c(C(F)(F)F)c3)cc2)ccn1 [Sorafenib] | – | – | −0.9 | −1.2 | −1.3 | –
C[C@@H](NC(=O)c1ncnc(N)c1Cl)c1ncc(C(=O)Nc2cc(C(F)(F)F)c(Cl)cn2)s1 [Tovorafenib] | – | 0.225 ± 0.0673 µM | −1.4 | – | – | –
CCCS(=O)(=O)Nc1ccc(F)c(C(=O)c2c[nH]c3ncc(-c4ccc(Cl)cc4)cc23)c1F [Vemurafenib] | −0.6 | 0.0476 ± 0.00912 µM | −0.9 | −0.7 | −0.8 | –
